# From patent US5972670A, “Blue copper oxidase mutants with enhanced activity” (priority 1998, dated 1999)
# Where two headings read alike, the source gives them in different places.
# Experiments:
# [1] = molecular target: T1, Rhizoctonia solani laccase isozyme 4 (rsl4; RsL), wild type (pJiWa59), SEQ ID NO:25 (Thanatephorus cucumeris, UniProt Q02081); test: Syringaldazine and ABTS oxidase kinetics (Km, kcat), RsL wt; assay type: biochemical; settings: 8 mM MES-NaOH buffer, pH 5.3, spectroscopic
# T1 sequence (Q02081 21-531): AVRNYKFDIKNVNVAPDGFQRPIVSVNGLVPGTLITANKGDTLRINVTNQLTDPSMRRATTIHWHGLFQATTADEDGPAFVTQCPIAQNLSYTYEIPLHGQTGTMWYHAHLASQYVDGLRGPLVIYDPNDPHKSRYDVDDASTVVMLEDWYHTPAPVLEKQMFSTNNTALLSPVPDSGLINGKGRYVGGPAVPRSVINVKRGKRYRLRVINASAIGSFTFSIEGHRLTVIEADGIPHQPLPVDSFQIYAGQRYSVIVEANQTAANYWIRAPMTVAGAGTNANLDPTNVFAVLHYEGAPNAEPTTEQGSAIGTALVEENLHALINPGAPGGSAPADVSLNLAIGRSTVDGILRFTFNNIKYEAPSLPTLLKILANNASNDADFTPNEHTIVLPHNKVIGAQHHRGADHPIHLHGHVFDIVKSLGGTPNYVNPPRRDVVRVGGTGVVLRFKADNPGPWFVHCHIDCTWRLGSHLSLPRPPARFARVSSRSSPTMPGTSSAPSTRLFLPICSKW
# Protocol: (§1) The molecular weights of the mature laccases are used to calculate both extinction coefficients and turnover numbers. The molecular weights are determined from the deduced amino acid sequences of the DNA sequences (FIG. 6: SEQ ID NOS:24 and 25, and FIG. 7: SEQ ID NOS:26 and 27). Protein concentrations (expressed as subunits) are measured based on the extinction coefficients determined by quantitative amino acid analysis.
# (§2) Km and kcat are obtained from the initial rate (v), enzyme concentration (E), and substrate concentration (S) in accordance to the equation v=kcat ES/(Km +S) by non-linear regression fitting using the Prizm program (GraphPad, San Diego, Calif.). […] The O2 concentration in air-saturated buffer solution is assumed as the same in plain water (0.28 mM).
# [2] = molecular target: Rhizoctonia solani laccase isozyme 4 (RsL) mutant "T" L466V/E467S/A468G (pJiWa85) (Thanatephorus cucumeris, UniProt Q02081); assay type: biochemical
# Protocol: as §1, §2
# [3] = molecular target: Rhizoctonia solani laccase isozyme 4 (RsL) mutant "M" L470F (pJiWa86) (Thanatephorus cucumeris, UniProt Q02081); assay type: biochemical
# Protocol: as §1, §2
# [4] = molecular target: Myceliophthora thermophila laccase (MtL) mutant "T" V509L/S510E/G511A (pBANe22T) (Thermothelomyces thermophilus, UniProt G2QG31, G554A/S553E/V552L); assay type: biochemical
# Protocol: as §1, §2
# [5] = molecular target: Myceliophthora thermophila laccase (MtL) mutant "M" L513F (pRaMB17M) (Thermothelomyces thermophilus, UniProt G2QG31, form not given/L556F); assay type: biochemical
# Protocol: as §1, §2
# [6] = molecular target: T2, Myceliophthora thermophila laccase (lcc-1; MtL), wild type (pRaMB17), SEQ ID NO:27 (Thermothelomyces thermophilus, UniProt G2QG31); test: Syringaldazine and ABTS oxidase kinetics (Km, kcat), MtL wt; settings: 8 mM MES-NaOH buffer, pH 5.3, spectroscopic
# T2 sequence (G2QG31 with tags, fused parts or gaps INS108NSII/R109G/T291C/S323N/P398A/P430A/T522S/A533S/H588R): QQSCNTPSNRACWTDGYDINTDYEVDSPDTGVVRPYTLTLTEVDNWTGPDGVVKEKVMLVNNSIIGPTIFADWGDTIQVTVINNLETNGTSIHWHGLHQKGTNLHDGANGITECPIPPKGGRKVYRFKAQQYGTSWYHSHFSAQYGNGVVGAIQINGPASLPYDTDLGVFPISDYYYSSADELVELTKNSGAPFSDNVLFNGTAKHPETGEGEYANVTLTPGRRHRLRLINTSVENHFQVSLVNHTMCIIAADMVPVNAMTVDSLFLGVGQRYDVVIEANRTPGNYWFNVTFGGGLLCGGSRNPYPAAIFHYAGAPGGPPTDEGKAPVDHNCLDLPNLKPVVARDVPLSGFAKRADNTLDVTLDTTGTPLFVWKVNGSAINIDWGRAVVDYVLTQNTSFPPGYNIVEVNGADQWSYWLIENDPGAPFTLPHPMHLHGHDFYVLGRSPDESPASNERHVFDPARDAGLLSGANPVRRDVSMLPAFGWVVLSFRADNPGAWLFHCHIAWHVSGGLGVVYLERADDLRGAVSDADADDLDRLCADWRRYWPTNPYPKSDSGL
# Protocol: as §1, §2
# [7] = substrate: COc1cc(C=NN=Cc2cc(OC)c(O)c(OC)c2)cc(OC)c1O; test: purified protein, by the assay type; settings: 8 mM MES-NaOH buffer, pH 5.3, spectroscopic
# [8] = substrate: CCn1c(=NN=c2sc3cc(S(=O)(=O)O)ccc3n2CC)sc2cc(S(=O)(=O)O)ccc21; test: purified protein, by the assay type; settings: 8 mM MES-NaOH buffer, pH 5.3, spectroscopic
# [9] = 8 mM MES-NaOH buffer, pH 5.3, spectroscopic
# [10] = read-out: Km (ABTS), 8 mM MES-NaOH buffer, pH 5.3, spectroscopic
# [11] = read-out: Km (SGZ), 8 mM MES-NaOH buffer, pH 5.3, spectroscopic
molecule,measurement,setting,value
"CCn1c(=NN=c2sc3cc(S(=O)(=O)O)ccc3n2CC)sc2cc(S(=O)(=O)O)ccc21 [ABTS, 2,2'-azinobis(3-ethylbenzthiazoline-6-sulfonic acid)]",kcat (ABTS),[1],41.67 ± 1.67 s⁻¹
same,kcat (ABTS),[2]; [9],0.333 ± 0.017 s⁻¹
same,Km,[2]; [10],60 ± 4 µM
same,kcat (ABTS),[3]; [9],12.7 ± 0.5 s⁻¹
same,Km,[3]; [10],125 ± 13 µM
same,kcat (ABTS),[4]; [9],8.83 ± 0.333 s⁻¹
same,kcat (ABTS),[5]; [9],30 ± 1.67 s⁻¹
same,Km,[5]; [10],43 ± 3 µM
same,kcat (ABTS),[6],63.33 ± 5 s⁻¹
"COc1cc(C=NN=Cc2cc(OC)c(O)c(OC)c2)cc(OC)c1O [SGZ, syringaldazine]",kcat (SGZ),[1],9.17 ± 0.667 s⁻¹
same,kcat (SGZ),[2]; [9],0.0183 ± 0.0017 s⁻¹
same,Km,[2]; [11],3.9 ± 0.3 µM
same,kcat (SGZ),[3]; [9],4.25 ± 0.183 s⁻¹
same,Km,[3]; [11],35 ± 4 µM
same,kcat (SGZ),[4]; [9],6 ± 0.333 s⁻¹
same,Km,[4]; [11],0.9 ± 0.2 µM
same,kcat (SGZ),[5]; [9],55 ± 1.67 s⁻¹
same,Km,[5]; [11],1.8 ± 0.2 µM
"Rhizoctonia solani laccase isozyme 4 (rsl4; RsL), wild type (pJiWa59), SEQ ID NO:25 (Thanatephorus cucumeris) (protein) AVRNYKFDIKNVNVAPDGFQRPIVSVNGLVPGTLITANKGDTLRINVTNQLTDPSMRRATTIHWHGLFQATTADEDGPAFVTQCPIAQNLSYTYEIPLHGQTGTMWYHAHLASQYVDGLRGPLVIYDPNDPHKSRYDVDDASTVVMLEDWYHTPAPVLEKQMFSTNNTALLSPVPDSGLINGKGRYVGGPAVPRSVINVKRGKRYRLRVINASAIGSFTFSIEGHRLTVIEADGIPHQPLPVDSFQIYAGQRYSVIVEANQTAANYWIRAPMTVAGAGTNANLDPTNVFAVLHYEGAPNAEPTTEQGSAIGTALVEENLHALINPGAPGGSAPADVSLNLAIGRSTVDGILRFTFNNIKYEAPSLPTLLKILANNASNDADFTPNEHTIVLPHNKVIGAQHHRGADHPIHLHGHVFDIVKSLGGTPNYVNPPRRDVVRVGGTGVVLRFKADNPGPWFVHCHIDCTWRLGSHLSLPRPPARFARVSSRSSPTMPGTSSAPSTRLFLPICSKW",Km,[7]; other: RsL wt,28 ± 4 µM
same,Km,[8]; other: RsL wt,52 ± 6 µM
"Myceliophthora thermophila laccase (lcc-1; MtL), wild type (pRaMB17), SEQ ID NO:27 (Thermothelomyces thermophilus ATCC 42464) (protein) QQSCNTPSNRACWTDGYDINTDYEVDSPDTGVVRPYTLTLTEVDNWTGPDGVVKEKVMLVNNSIIGPTIFADWGDTIQVTVINNLETNGTSIHWHGLHQKGTNLHDGANGITECPIPPKGGRKVYRFKAQQYGTSWYHSHFSAQYGNGVVGAIQINGPASLPYDTDLGVFPISDYYYSSADELVELTKNSGAPFSDNVLFNGTAKHPETGEGEYANVTLTPGRRHRLRLINTSVENHFQVSLVNHTMCIIAADMVPVNAMTVDSLFLGVGQRYDVVIEANRTPGNYWFNVTFGGGLLCGGSRNPYPAAIFHYAGAPGGPPTDEGKAPVDHNCLDLPNLKPVVARDVPLSGFAKRADNTLDVTLDTTGTPLFVWKVNGSAINIDWGRAVVDYVLTQNTSFPPGYNIVEVNGADQWSYWLIENDPGAPFTLPHPMHLHGHDFYVLGRSPDESPASNERHVFDPARDAGLLSGANPVRRDVSMLPAFGWVVLSFRADNPGAWLFHCHIAWHVSGGLGVVYLERADDLRGAVSDADADDLDRLCADWRRYWPTNPYPKSDSGL",Km,[7]; other: MtL wt,1.4 ± 0.2 µM
same,Km,[8]; other: MtL wt,110 ± 20 µM
